Measured values from ChEMBL document CHEMBL1201862, “PubChem BioAssay data set” (2004).
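Method: 48-hour compound exposure of cells in 96-well plates, five concentrations, linear interpolation of endpoints. At the GI50, growth is halved.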 Activity calls are given as the source filed them. Cut-off read from the data, not from the text of the source: active = GI50 up to about 1.1 µM and inactive = higher. Where a SMILES comes first, the peptide text is derived from it.

How the values were obtained:
Assay in all cases: NCI tumour cell line growth inhibition, 48 h
CAKI-1 = test system: CAKI-1
COLO 205 = test system: COLO 205
HT-29 = test system: HT-29
IGROV-1 = test system: IGROV-1
NCI-H226 = test system: NCI-H226
NCI-H460 = test system: NCI-H460
NCI-H522 = test system: NCI-H522
OVCAR-3 = test system: OVCAR-3
OVCAR-4 = test system: OVCAR-4
SNB-19 = test system: SNB-19
U-251 = test system: U-251
UACC-62 = test system: UACC-62
UO-31 = test system: UO-31
RXF 393 = test system: RXF 393
LOX IMVI = test system: LOX IMVI

Structure (SMILES)	GI50 (CAKI-1)	GI50 (COLO 205)	GI50 (HT-29)	GI50 (IGROV-1)	GI50 (NCI-H226)	GI50 (NCI-H460)	GI50 (NCI-H522)	GI50 (OVCAR-3)	GI50 (OVCAR-4)	GI50 (SNB-19)	GI50 (U-251)	GI50 (UACC-62)	GI50 (UO-31)	GI50 (RXF 393)	GI50 (LOX IMVI)
NCCCOc1ccc([N+](=O)[O-])cc1Cl	28.1 µM (inactive)	> 100 µM (inactive)	> 100 µM (inactive)	> 100 µM (inactive)	> 100 µM (inactive)	> 100 µM (inactive)	5.62 µM (inactive)	> 100 µM (inactive)	> 100 µM (inactive)	> 100 µM (inactive)	> 100 µM (inactive)	> 100 µM (inactive)	81.8 µM (inactive)		
Cc1cc(Cl)ccc1NC(=O)C1C(=O)N(c2ccc(Cl)cc2C)C(=O)/C1=N\NC(N)=S (stereo not drawn)		32.1 µM (inactive)	18.7 µM (inactive)			31.6 µM (inactive)	17.1 µM (inactive)	32.8 µM (inactive)	18.5 µM (inactive)	37.3 µM (inactive)	19.6 µM (inactive)	31.6 µM (inactive)	17 µM (inactive)	16 µM (inactive)	
O=C1C=C(c2[nH]c3ccccc3c2C2=CC(=O)c3ccccc3C2=O)C(=O)c2ccccc21		> 100 µM (inactive)	> 100 µM (inactive)	30.1 µM (inactive)	61.7 µM (inactive)	35.6 µM (inactive)		21.6 µM (inactive)	33.7 µM (inactive)	70.1 µM (inactive)	32.8 µM (inactive)	24.9 µM (inactive)	> 100 µM (inactive)	39.7 µM (inactive)	22.1 µM (inactive)
c1ccc2c(c1)CCc1cc3cc4c(nc3nc1-2)-c1ccccc1CC4		> 100 µM (inactive)	> 10 µM (inactive)	> 100 µM (inactive)	> 100 µM (inactive)	> 100 µM (inactive)	> 100 µM (inactive)	> 100 µM (inactive)		> 100 µM (inactive)	> 100 µM (inactive)	> 100 µM (inactive)	> 100 µM (inactive)	69.7 µM (inactive)	> 100 µM (inactive)
CCOC(C)C(/C=N/NC(N)=S)=NNC(N)=S (stereo not drawn) [GLOXAZONE]	> 100 µM (inactive)	> 100 µM (inactive)				> 100 µM (inactive)	26.2 µM (inactive)		> 100 µM (inactive)	> 100 µM (inactive)	1.07 µM (active)	> 100 µM (inactive)			> 100 µM (inactive)
N#CC1CCCCCCCCCCC(=O)N(CCCl)C1=O (stereo not drawn)	> 100 µM (inactive)	> 100 µM (inactive)	> 100 µM (inactive)	> 100 µM (inactive)		> 100 µM (inactive)	> 100 µM (inactive)	> 100 µM (inactive)	> 100 µM (inactive)	> 100 µM (inactive)	> 100 µM (inactive)	> 100 µM (inactive)	> 100 µM (inactive)	> 100 µM (inactive)	> 100 µM (inactive)
Cn1cnc([N+](=O)[O-])c1Sc1nnc(C(F)(F)F)n1C	62.1 µM (inactive)	14.6 µM (inactive)	35.7 µM (inactive)	40 µM (inactive)	24.9 µM (inactive)	> 100 µM (inactive)	10.4 µM (inactive)	22 µM (inactive)	24.3 µM (inactive)	> 100 µM (inactive)	17.1 µM (inactive)	18 µM (inactive)	26.5 µM (inactive)		15.3 µM (inactive)
C=CCCCN1CCCCC1=S		> 100 µM (inactive)	> 100 µM (inactive)	> 100 µM (inactive)	> 100 µM (inactive)	> 100 µM (inactive)	> 100 µM (inactive)	> 100 µM (inactive)	> 100 µM (inactive)	> 100 µM (inactive)	> 100 µM (inactive)	> 100 µM (inactive)	> 100 µM (inactive)	> 100 µM (inactive)	> 100 µM (inactive)
CCCCN(CCCC)C(=O)C(=O)C(C)C(=O)CC (stereo not drawn)	> 100 µM (inactive)	> 100 µM (inactive)	> 100 µM (inactive)	> 100 µM (inactive)	> 100 µM (inactive)	> 100 µM (inactive)	> 100 µM (inactive)	> 100 µM (inactive)	> 100 µM (inactive)	> 100 µM (inactive)	> 100 µM (inactive)	> 100 µM (inactive)	> 100 µM (inactive)		> 100 µM (inactive)
COC(=O)[C@@]12OC[C@]34C([C@@H](O)C1O)[C@@]1(C)CC(=O)C(OC(=O)CC(C)C(F)(F)F)=C(C)C1C[C@H]3OC(=O)[C@H](O)[C@H]42 (stereo partly drawn)	9.4 µM (inactive)	6.81 µM (inactive)	6.92 µM (inactive)	2.22 µM (inactive)	2.06 µM (inactive)	1.77 µM (inactive)	3.46 µM (inactive)		14.7 µM (inactive)	0.809 µM (active)	4.79 µM (inactive)	1.12 µM (active)	10.6 µM (inactive)	4.62 µM (inactive)	
O=C(Nc1cc(Cl)ccc1Cl)c1cc2cccc(Cl)c2oc1=O		> 100 µM (inactive)	> 100 µM (inactive)	> 100 µM (inactive)		> 100 µM (inactive)	> 100 µM (inactive)	> 100 µM (inactive)			> 100 µM (inactive)	> 100 µM (inactive)		> 100 µM (inactive)	> 100 µM (inactive)
O=C(O)C(CO)NC(=O)n1c2ccccc2c2ccccc21 (stereo not drawn)	> 100 µM (inactive)	> 100 µM (inactive)	> 100 µM (inactive)	> 100 µM (inactive)	> 100 µM (inactive)	> 100 µM (inactive)	> 100 µM (inactive)	> 100 µM (inactive)		> 100 µM (inactive)		> 100 µM (inactive)		> 100 µM (inactive)	> 100 µM (inactive)
CCC(C)C1NC(=O)C2CCCN2C(=O)CNC(=O)C(C)NC(=O)C(Cc2ccccc2)NC(=O)C(C(C)C)NC1=O (stereo not drawn) (cyclo(GPIVFA); configuration not given here)	> 100 µM (inactive)	> 100 µM (inactive)	> 100 µM (inactive)	> 100 µM (inactive)	> 100 µM (inactive)	> 100 µM (inactive)		> 100 µM (inactive)	> 100 µM (inactive)	> 100 µM (inactive)	> 100 µM (inactive)	> 100 µM (inactive)	> 100 µM (inactive)	> 100 µM (inactive)	> 100 µM (inactive)
CCc1cccc(C)c1NC(C)=O	> 100 µM (inactive)		> 100 µM (inactive)	> 100 µM (inactive)	> 100 µM (inactive)	> 100 µM (inactive)		> 100 µM (inactive)	> 100 µM (inactive)		> 100 µM (inactive)	> 100 µM (inactive)	> 100 µM (inactive)	> 100 µM (inactive)	
O=C(O)/C(Cl)=C(Cl)/C=N/NC(=O)c1cc2ccccc2cc1O	21 µM (inactive)	32.5 µM (inactive)	38.6 µM (inactive)	15.5 µM (inactive)	18.6 µM (inactive)	21 µM (inactive)	22.1 µM (inactive)	6.11 µM (inactive)	5.66 µM (inactive)	35.2 µM (inactive)	27.5 µM (inactive)	3.6 µM (inactive)	2.48 µM (inactive)		
